Data published in PMC5657837 (Journal of Insect Science, 2014).

Tested on: midgut α-amylase
Test: α-amylase activity of larval midgut homogenate
Format: biochemical, Mythimna separata

SMILES: O=C1CCC(=O)N1Br [NBS, N-bromosuccinimide]
- Ki: 2.53 µM
